According to patent US20070037756A1, “Compositions and methods for the prevention and treatment of circulatory conditions” (LEADTREK, INC, priority 2005, published 2007):

Key:
male Sprague-Dawley rats = experiment: Animal Model (In Vivo) Assay For Platelet Aggregation Activity using arteriovenous shunts; parameters: species or system rat; conditions: oral; for Thrombus weight (newly formed thrombus wet weight): glycerol glucoside derivative 50, 100 mg/kg, aspirin 30 mg/kg x 4 times, 120 min after treatment, shunt 15 minutes, saline 12.9 mg
Method: Assays for platelet aggregation activity using arteriovenous shunts were carried out as provided in Umetsu et al., “Effect Of 1-Methyl-2-Mercapto-5(3-Pyridyl)-Imidazole (KC-6141), An Antiaggregation Compound, On Experimental Thrombosis In Rats” Thromb Haemostasis 39:74-83 (1978); and Tang et al., “Anti-Thrombotic Activity Of PDR, A Newly Synthesized L-Arg Derivative, On Three Thrombosis Models In Rats” Thrombosis Research 110:127-133 (2003). Briefly, male Sprague-Dawley rats weighing 320-380 g were used after overnight fasting. The rats were administered orally with: i) a negative control (isotonic saline): ii) a glycerol glucoside derivative (50, 100 mg/kg); and iii) a positive control compound, aspirin (30 mg/kg x 4 times). A 75 min period occurred between each dose to allow the return of homeostasis.
The left jugular vein and the right carotid artery were cannulated with a 4 cm long polyethylene tube (o.d. 1 mm) while being infused with 50 μ/kg i.v. heparin. These catheters were then connected to the ends of a 15 cm long polyethylene tube (o.d. 2 mm) containing a 5 cm long suture silk thread (no. 4). Before the silk thread was placed in the polyethylene tube a pre-treatment wet weight was determined (i.e., a pre-thrombus formation weight). At 120 min after each drug treatment, the blood flow through the shunt was measured for 15 minutes. The silk thread, now containing newly formed thrombi, was gently removed, and a post-treatment wet weight was measured immediately. The newly formed thrombus wet weight was determined by subtracting the pre-treatment silk wet weight from the post-treatment silk wet weight. Thrombus weight for saline was 12.9 mg, for BH-2 (Regaloside C (2)) was 8.8 mg, and for aspirin was 7.1 mg (see FIG. 12).
The rate of thrombosis inhibition was calculated with the equation as follows: % Thrombosis inhibition=(A−A1)/A×100%
Where A was the newly formed thrombus wet weight of the control group (i.e., Saline), and A1 was the newly formed thrombus wet weight of the test derivative or positive control compound (i.e., aspirin).

Rat PRP = experiment: Assay of in Vitro Antiplatelet Aggregation (turbidimetry, rat PRP stimulated with ADP and collagen); type: cell-based; conditions: maximal aggregation induced by ADP and collagen
Method: Platelet aggregation was determined using methods and minor variations as described in Choo et al., Biol. Pharm. Bull. 25(10) 1328-1332 (2002) and Born et al., J. Physiol., 168, 178-195 (1963). For example, blood from rats was collected by cardiac puncture into a plastic flask containing 2.2% sodium citrate (1:9 v/v). Platelet-rich plasma (PRP) was prepared by centrifugation of the blood at 120×g for 15 min and further centrifuged at 850×g for 10 min to prepare platelet poor plasma (PPP). The supernatant was pooled and centrifuged at 600×g for 15 min at room temperature. The platelet pellets were washed with modified Tyrode-HEPES buffer (129 mM NaCl, 2.8 mM KCl, 8.9 mM NaHCO3, 0.8 mM MgCl2, 0.8 mM KH2PO4, 2 mM EGTA, 5.6 mM glucose, 10 mM HEPES, 0.35% BSA, pH 7.4) and centrifuged at 600×g for 15 min. Then platelet pellets were gently resuspended in Tyrode-HEPES buffer and used in the experiments.
Platelet aggregation was measured by turbidimetry using a dual-channel Whole Lumini-lonized Calcium Aggregometer (Chrono-Log Co., Ltd., Havertown, Pa., U.S.A.). Rat PRP ([…]) was incubated at 37° C. for 2 min in the aggregometer with stirring at 1200 rpm and then stimulated with ADP and collagen. […] Changes in light transmission were recorded for 10 min after stimulation with these agents. […]

| SMILES | % Thrombosis inhibition (male Sprague-Dawley rats; (A-A1)/A x 100% versus saline control, rat arteriovenous shunt) [%] | Thrombus weight (newly formed thrombus wet weight) (male Sprague-Dawley rats) [mg] | inhibition at 10 µM (Rat PRP) [%] |
| --- | --- | --- | --- |
| O=C(/C=C/c1ccc(O)c(O)c1)OC[C@@H](O)CO[C@@H]1O[C@H](CO)[C@@H](O)[C@H](O)[C@H]1O [BH-2, regaloside C] | 31.7 | 8.8 | – |
| CC(=O)Oc1ccccc1C(=O)O [aspirin, acetylsalicylic acid, reference compound] | – | 7.1 | – |
| O=C(O)c1cc(O)c2c(c1)C(=O)c1cccc(O)c1C2=O [rhein] | – | – | 1.8 |
